# Key:
# [1] = tested on: human dendritic cells; assay: Transfection of human dendritic cells with pEGFP-N1, count of fluorescent positive cells; format: cell-based
# [2] = tested on: KLN 205 cells; assay: Uptake of YOYO-1 labelled DNA complexes by KLN 205 cells (FACScan); format: cell-based, mouse
# Experimental: KLN 205 cells were plated at a density of 1.5×10^5 cells per well in 6 well plates one day prior to the addition of DNA. Plasmid DNA (pCMVgal) was labeled with the fluorescent dye: YOYO-1 (Molecular Probes, Eugene, OR) at a ratio of 1 dye molecule per 100 bp (i.e. 1.5 µl of a 10 µM YOYO-1 solution per µg of DNA). The DNA was diluted to 40 µg/ml with 10 mM HEPES, pH 7.3. […] The transfection complex solution was left for 1 hour at room temperature before it was applied to the cells in EMEM/120 µM chloroquine with or without FCS at a DNA concentration of 2 µg/well (i.e. 100 µl of complex added to 900 µl medium for one well). After 4 hours of incubation at 37°C the cells were washed twice with PBS and harvested with Trypsin/EDTA. The cell associated fluorescence was analyzed using a FACScan (Becton Dickinson).
# [3] = tested on: HepG2 cells; assay: Transfection of HepG2 cells in the presence of serum; format: cell-based; details: 10% FCS, optimum charge ratio for each peptide, pCMVβ
# Experimental: These transfection complexes were then tested for their comparative ability to transfect HepG2 cells in the presence of 10% FCS (Figure 32).
# [4] = tested on: Cos7 cells; assay: Transfection of Cos cells with pCMVβ, Galacto-Light β-galactosidase assay; format: cell-based, monkey; details: chloroquine, 5 hours, triplicate
# Experimental: The DNA and complex solutions were made as follows: • DNA solution: 100 µg/ml pCMVβ, 25 mM phosphate pH 7.4, 0.6 M NaCl. Complex solution: 100 µg/ml pCMVβ, 25 mM phosphate pH 7.4, 0.6 M NaCl, 200 µg/ml K6CL22. These solutions were incubated at room temperature for 1 hour and then 4°C overnight. Cos cells were seeded at 1×10^5 cells per well in 6 well plates (in DMEM, 10% Fetal calf serum (FCS)) 24 hours before incubation with complex or DNA.
# The DNA and complex solutions were diluted into PEG diluent (10% PEG 8000, 25 mM phosphate pH 7.4, 37.5 mM NaCl) to a final DNA concentration of 20 µg/ml. Just prior to transfection the Cos cells were washed with PBS and 875 µl RATQ medium (RAT medium with 137.14 µM chloroquine) was added per well. 125 µl of diluted complex or DNA solution was then added per well and the cells were incubated at 37°C for 5 hours. […] 100 µl of Reaction buffer is added to each tube, the samples are incubated at room temperature for 60 mins and then analyzed using Light Emission Accelerator and a Barthoid lumat LB 9501 luminometer. The protein concentration of the cleared cell lysate was measured using the Bio-Rad DC protein assay kit (Bio-Rad). The results are then expressed as relative light units per mg of protein (Figure 7). […]
# [5] = Photon correlation spectroscopy (PCS) particle size of K6CL22-DNA complexes; format: physicochemical; details: 150mM NaCl, one hour at room temperature, DNA 40 µg/ml
# Experimental: Complexes between K6CL22 and DNA were formed in the following way in a laminar flow hood: A stock solution of K6CL22 (typically 8-12mg/ml) was stored in water at -20°C. This was thawed and diluted to 4-400µg/ml in either 10mM HEPES pH7.4 (Hepes) or 10mM HEPES/150mM NaCl pH 7.4 (HBS). (It should be noted that these non-reducing conditions favor the formation of peptide dimers via disulfide bonding between peptides of cysteine residues in the peptide). A stock solution of pCMVβ plasmid DNA (typically 2-4mg/ml in either water or TE buffer) was diluted to 40 µg/ml in Hepes or HBS. Peptide (typically 0.4-1ml) was added to an equal volume of diluted DNA. Different target ratios of Peptide:DNA were achieved by varying the concentration of added peptide. Samples were immediately mixed by gently sucking up and down in a pipette tip and left to incubate at room temperature for a minimum of one hour or if required overnight at 4°C.
# In Fig. 1, peptide and DNA were mixed as described above and incubated over night at 4°C. The final DNA concentration was 40µg/ml. […]
# For PCS analysis the buffers used in the preparation of samples were filtered through 20nm filters. […] Samples were allowed to equilibrate to 25°C prior to measuring, and an average Zav was determined from a minimum of three measurements. […] Zav and intensity and volume distributions were determined using Malvern PC S software. […]
# [6] = tested on: KLN 205 cells; assay: Transfection of KLN 205 cells, luminescence and X-gal; format: cell-based, mouse; details: for % expressing cells / average light units: 120 µM chloroquine, 2 µg DNA/well; for average light units: charge ratio +2
structure (smiles),measurement,setting,value
CC[C@H](C)[C@H](NC(=O)[C@H](CC(N)=O)NC(=O)[C@H](CS)NC(=O)[C@H](CCSC)NC(=O)[C@H](CCCNC(=N)N)NC(=O)[C@H](CCC(=O)O)NC(=O)[C@H](Cc1ccc(O)cc1)NC(=O)[C@H](C)NC(=O)[C@H](CO)NC(=O)[C@H](CCCNC(=N)N)NC(=O)[C@@H](NC(=O)[C@H](CCCCN)NC(=O)[C@H](CCCNC(=N)N)NC(=O)CNC(=O)[C@H](CC(N)=O)NC(=O)[C@H](CCC(=O)O)NC(=O)CNC(=O)[C@H](CCCNC(=N)N)NC(=O)[C@H](Cc1c[nH]c2ccccc12)NC(=O)[C@H](Cc1ccccc1)NC(=O)CNC(=O)[C@H](CC(C)C)NC(=O)[C@H](Cc1ccccc1)NC(=O)CNC(=O)CNC(=O)[C@H](CCCCN)NC(=O)[C@H](CCCCN)NC(=O)[C@H](CCCCN)NC(=O)[C@H](CCCCN)NC(=O)[C@H](CCCCN)NC(=O)[C@H](CCCCN)NC(=O)[C@H](CCCCN)NC(=O)[C@H](CCCCN)NC(=O)[C@H](CCCCN)NC(=O)[C@H](CCCCN)NC(=O)[C@H](CCCCN)NC(=O)[C@@H](N)CCCCN)[C@@H](C)O)C(=O)N[C@@H](CC(C)C)C(=O)N[C@@H](CCCCN)C(=O)NCC(=O)N[C@@H](CCCCN)C(=O)O [CL26],"transfection efficiency, CL26-complexed versus CL22-complexed DNA","[1]; Figure 35, peptide/DNA ratio between 1 and 1.8",higher efficiency
same,"transfection efficiency, CL26-complexed versus CL22-complexed DNA",[1]; Figures 33 and 34,higher efficiency
CC[C@H](C)[C@H](NC(=O)[C@H](CC(N)=O)NC(=O)[C@H](CS)NC(=O)[C@H](CCSC)NC(=O)[C@H](CCCNC(=N)N)NC(=O)[C@H](CCC(=O)O)NC(=O)[C@H](Cc1ccc(O)cc1)NC(=O)[C@H](C)NC(=O)[C@H](CO)NC(=O)[C@H](CCCNC(=N)N)NC(=O)[C@@H](NC(=O)[C@H](CCCCN)NC(=O)[C@H](CCCNC(=N)N)NC(=O)CNC(=O)[C@H](CC(N)=O)NC(=O)[C@H](CCC(=O)O)NC(=O)CNC(=O)[C@H](CCCNC(=N)N)NC(=O)[C@H](Cc1c[nH]c2ccccc12)NC(=O)[C@H](Cc1ccccc1)NC(=O)CNC(=O)[C@H](CC(C)C)NC(=O)[C@H](Cc1ccccc1)NC(=O)CNC(=O)CNC(=O)[C@H](CCCCN)NC(=O)[C@H](CCCCN)NC(=O)[C@H](CCCCN)NC(=O)[C@H](CCCCN)NC(=O)[C@H](CCCCN)NC(=O)[C@@H](N)CCCCN)[C@@H](C)O)C(=O)N[C@@H](CC(C)C)C(=O)N[C@@H](CCCCN)C(=O)NCC(=O)N[C@@H](CCCCN)C(=O)O [K6CL22 monomer],"transfection of dendritic cells, monomer versus dimer",[1]; peptide/DNA ratio between 2.0 and 4.0,transfects dendritic cells poorly compared with CL22 dimer
same,effect of FCS on transfection efficiency,[1]; presence of FCS compared to absence of FCS,greatly reduced
CC[C@H](C)[C@H](NC(=O)[C@H](CC(N)=O)NC(=O)[C@H](CS)NC(=O)[C@H](CCSC)NC(=O)[C@H](CCCNC(=N)N)NC(=O)[C@H](CCC(=O)O)NC(=O)[C@H](Cc1ccc(O)cc1)NC(=O)[C@H](C)NC(=O)[C@H](CO)NC(=O)[C@H](CCCNC(=N)N)NC(=O)[C@@H](NC(=O)[C@H](CCCCN)NC(=O)[C@H](CCCNC(=N)N)NC(=O)CNC(=O)[C@H](CC(N)=O)NC(=O)[C@H](CCC(=O)O)NC(=O)CNC(=O)[C@H](CCCNC(=N)N)NC(=O)[C@H](Cc1c[nH]c2ccccc12)NC(=O)[C@H](Cc1ccccc1)NC(=O)CNC(=O)[C@H](CC(C)C)NC(=O)[C@H](Cc1ccccc1)NC(=O)CNC(=O)CNC(=O)[C@H](CCCCN)NC(=O)[C@H](CCCCN)NC(=O)[C@H](CCCCN)NC(=O)[C@H](CCCCN)NC(=O)[C@H](CCCCN)NC(=O)[C@@H](N)CCCCN)[C@@H](C)O)C(=O)N[C@@H](CC(C)C)C(=O)N[C@@H](CCCCN)C(=O)NCC(=O)N[C@@H](CCCCN)C(=O)O [K6CL22],uptake of complexed DNA compared to DNA complexed with a polylysine peptide,"[2]; charge ratio +2, 120 µM chloroquine, 4 hours",taken up as efficiently
same,"uptake of complexed DNA compared to a polylysine peptide, presence of FCS",[2]; in the presence of FCS,less than that of a polylysine peptide
same,"transfection efficiency, CL22-complexed versus CL26-complexed DNA","[1]; Figure 35, peptide/DNA ratio between 2 and 2.6",greater
same,transfection compared with polylysine peptides or a histone based peptide,[3],greater
same,"transfection of Cos cells (β-galactosidase, relative light units per mg of protein)",[4],very efficient transfection
same,size of large particles/aggregates of complex,[5],approx. 1000 nm
same,gene expression compared to NBC32 complexed plasmid DNA,[6],higher
same,% expressing cells,[6]; absence of FCS,35%
same,average light units,[6]; absence of FCS,3000 x 10^6 RLU
same,% expressing cells,[6]; presence of FCS,5%
same,average light units,[6]; presence of FCS,77 x 10^6 RLU
